Source: patent publication US10323022B2, “Pyrrolidinyl urea, pyrrolidinyl thiourea and pyrrolidinyl guanidine compounds as TrkA kinase inhibitors” (Array BioPharma Inc., priority 2011, dated 2019)

Target: TrkA (Homo sapiens (Human), UniProt P04629)
Assay: TrkA Omnia Assay
Format: biochemical
Details: averaged IC50; 20 nM enzyme, 500 μM ATP, 10 μM peptide substrate
Method in brief: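 Recombinant TrkA (20 nM) preincubated 10 min at ambient temperature with compound, then Omnia Tyr Peptide #4 (10 μM) and ATP (500 μM) added in 25 mM MOPS pH 7.5, 5 mM MgCl2, 0.005% Triton X-100. Fluorescence (ex 360/em 485 nm) followed continuously for 70 min; IC50 from initial rates by 4- or 5-parameter logistic fit.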

Chain of TrkA (P04629 33-796): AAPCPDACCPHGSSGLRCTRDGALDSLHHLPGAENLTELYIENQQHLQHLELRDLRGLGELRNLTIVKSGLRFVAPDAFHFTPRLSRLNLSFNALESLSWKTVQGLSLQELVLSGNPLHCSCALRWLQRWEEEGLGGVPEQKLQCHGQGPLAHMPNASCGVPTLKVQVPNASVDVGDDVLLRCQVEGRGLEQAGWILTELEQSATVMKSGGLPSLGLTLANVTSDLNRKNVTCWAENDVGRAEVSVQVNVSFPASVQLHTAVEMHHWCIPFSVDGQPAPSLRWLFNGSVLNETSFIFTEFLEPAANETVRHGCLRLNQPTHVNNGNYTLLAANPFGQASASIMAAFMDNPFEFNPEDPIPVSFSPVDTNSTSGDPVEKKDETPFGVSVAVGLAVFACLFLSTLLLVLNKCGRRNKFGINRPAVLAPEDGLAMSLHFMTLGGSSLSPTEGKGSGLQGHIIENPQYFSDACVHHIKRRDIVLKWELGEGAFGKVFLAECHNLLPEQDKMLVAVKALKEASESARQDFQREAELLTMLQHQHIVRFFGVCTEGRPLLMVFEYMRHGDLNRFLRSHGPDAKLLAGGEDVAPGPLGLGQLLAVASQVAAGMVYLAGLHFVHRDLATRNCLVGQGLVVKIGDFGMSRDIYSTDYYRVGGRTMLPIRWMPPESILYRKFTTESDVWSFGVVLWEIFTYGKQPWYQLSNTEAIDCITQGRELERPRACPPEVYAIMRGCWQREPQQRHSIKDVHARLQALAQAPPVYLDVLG

## COCCN1C[C@@H](NC(=O)Nc2cc(-c3ccccc3)nn2CCO)[C@H](c2ccc(F)c(F)c2)C1 [Example 122, 1-((3S,4R)-4-(3,4-difluorophenyl)-1-(2-methoxyethyl)pyrrolidin-3-yl)-3-(1-(2-hydroxy-ethyl)-3-phenyl-1H-pyrazol-5-yl)urea]
  IC50: 0.1 to 1 µM

## COCCN1C[C@@H](NC(=O)Nc2c(C)c(COC)nn2-c2ccccc2)[C@H](c2ccc(F)c(F)c2)C1 [Example 123, 1-((3S,4R)-4-(3,4-difluorophenyl)-1-(2-methoxyethyl)pyrrolidin-3-yl)-3-(3-(methoxy-methyl)-4-methyl-1-phenyl-1H-pyrazol-5-yl)urea]
  IC50: < 0.1 µM

## COCCN1C[C@@H](NC(=O)Nc2c(C)c(COC)nn2-c2ccccc2)[C@H](c2cc(F)cc(F)c2)C1 [Example 124, 1-((3S,4R)-4-(3,5-difluorophenyl)-1-(2-methoxyethyl)pyrrolidin-3-yl)-3-(3-(methoxy-methyl)-4-methyl-1-phenyl-1H-pyrazol-5-yl)urea]
  IC50: < 0.1 µM

## COCCN1C[C@@H](NC(=O)Nc2cc(-c3ccc(SC)cc3)nn2C)[C@H](c2ccc(F)c(F)c2)C1 [Example 125, 1-((3S,4R)-4-(3,4-difluorophenyl)-1-(2-methoxyethyl)pyrrolidin-3-yl)-3-(1-methyl-3-(4-(methylthio)phenyl)-1H-pyrazol-5-yl)urea]
  IC50: < 0.1 µM

## COCCN1C[C@@H](NC(=O)Nc2cc(-c3ccccc3)nn2-c2ccccc2)[C@H](c2ccc(F)c(F)c2)C1 [Example 126, 1-((3S,4R)-4-(3,4-difluorophenyl)-1-(2-methoxyethyl)pyrrolidin-3-yl)-3-(1,3-diphenyl-1H-pyrazol-5-yl)urea]
  IC50: < 0.1 µM

## COCCCc1nn(-c2ccccc2)c(NC(=O)N[C@@H]2CN(CCOC)C[C@H]2c2ccc(F)c(F)c2)c1C [Example 127, 1-((3S,4R)-4-(3,4-difluorophenyl)-1-(2-methoxyethyl)pyrrolidin-3-yl)-3-(3-(3-methoxypropyl)-4-methyl-1-phenyl-1H-pyrazol-5-yl)urea]
  IC50: < 0.1 µM

## COCCN1C[C@@H](NC(=O)Nc2c3c(nn2-c2ccccc2)CCC3)[C@H](c2ccc(F)cc2)C1 [Example 128, 1-((3S,4R)-4-(4-fluorophenyl)-1-(2-methoxyethyl)pyrrolidin-3-yl)-3-(2-phenyl-2,4,5,6-tetrahydrocyclo-penta[c]pyrazol-3-yl)urea]
  IC50: < 0.1 µM

## COCCN1C[C@@H](NC(=O)Nc2c(C)c(C)nn2-c2ccccc2)[C@H](c2ccc(F)cc2)C1 [Example 129, 1-(3,4-dimethyl-1-phenyl-1H-pyrazol-5-yl)-3-((3S,4R)-4-(4-fluorophenyl)-1-(2-methoxyethyl)pyrrolidin-3-yl)urea]
  IC50: < 0.1 µM

## COCCOc1ccc(-c2cc(NC(=O)N[C@@H]3CN(CCOC)C[C@H]3c3ccc(F)c(F)c3)n(C)n2)cc1 [Example 130, 1-((3S,4R)-4-(3,4-difluorophenyl)-1-(2-methoxyethyl)pyrrolidin-3-yl)-3-(3-(4-(2-methoxyethoxy)phenyl)-1-methyl-1H-pyrazol-5-yl)urea]
  IC50: < 0.1 µM

## COCCN1C[C@@H](NC(=O)Nc2c(OC)c(C)nn2-c2ccccc2)[C@H](c2ccc(F)c(F)c2)C1 [Example 131, 1-((3S,4R)-4-(3,4-difluorophenyl)-1-(2-methoxyethyl)pyrrolidin-3-yl)-3-(4-methoxy-3-methyl-1-phenyl-1H-pyrazol-5-yl)urea]
  IC50: < 0.1 µM

## COCCN1C[C@@H](NC(=O)Nc2c(C)c(CO)nn2-c2ccccc2)[C@H](c2ccc(F)c(F)c2)C1 [Example 132, 1-((3S,4R)-4-(3,4-difluorophenyl)-1-(2-methoxyethyl)pyrrolidin-3-yl)-3-(3-(hydroxy-methyl)-4-methyl-1-phenyl-1H-pyrazol-5-yl)urea]
  IC50: < 0.1 µM

## COCCN1C[C@@H](NC(=O)Nc2c(C)c(CCO)nn2-c2ccccc2)[C@H](c2ccc(F)c(F)c2)C1 [Example 133, 1-((3S,4R)-4-(3,4-difluorophenyl)-1-(2-methoxyethyl)pyrrolidin-3-yl)-3-(3-(2-hydroxy-ethyl)-4-methyl-1-phenyl-1H-pyrazol-5-yl)urea]
  IC50: < 0.1 µM

## COCCc1nn(-c2ccccc2)c(NC(=O)N[C@@H]2CN(CCOC)C[C@H]2c2ccc(F)c(F)c2)c1C [Example 134, 1-((3S,4R)-4-(3,4-difluorophenyl)-1-(2-methoxyethyl)pyrrolidin-3-yl)-3-(3-(2-methoxy-ethyl)-4-methyl-1-phenyl-1H-pyrazol-5-yl)urea]
  IC50: < 0.1 µM

## CCOc1nn(-c2ccccc2)c(NC(=O)N[C@@H]2CN(CCOC)C[C@H]2c2ccc(F)c(F)c2)c1C [Example 135, 1-((3S,4R)-4-(3,4-difluorophenyl)-1-(2-methoxyethyl)pyrrolidin-3-yl)-3-(3-ethoxy-4-methyl-1-phenyl-1H-pyrazol-5-yl)urea]
  IC50: < 0.1 µM

## COCCN1C[C@@H](NC(=O)Nc2cc(OCc3ccccc3)nn2C)[C@H](c2ccc(F)c(F)c2)C1 [Example 136, 1-(3-(benzyloxy)-1-methyl-1H-pyrazol-5-yl)-3-((3S,4R)-4-(3,4-difluorophenyl)-1-(2-methoxyethyl)pyrrolidin-3-yl)urea]
  IC50: 0.1 to 1 µM

## COCCOc1nn(-c2ccccc2)c(NC(=O)N[C@@H]2CN(CCOC)C[C@H]2c2ccc(F)c(F)c2)c1C [Example 137, 1-((3S,4R)-4-(3,4-difluorophenyl)-1-(2-methoxyethyl)pyrrolidin-3-yl)-3-(3-(2-methoxy-ethoxy)-4-methyl-1-phenyl-1H-pyrazol-5-yl)urea]
  IC50: < 0.1 µM

## CCOc1nn(-c2ccccc2)c(NC(=O)N[C@@H]2CN(CCOC)C[C@H]2c2cc(F)cc(F)c2)c1C [Example 138, 1-((3S,4R)-4-(3,5-difluorophenyl)-1-(2-methoxyethyl)pyrrolidin-3-yl)-3-(3-ethoxy-4-methyl-1-phenyl-1H-pyrazol-5-yl)urea]
  IC50: < 0.1 µM

## CCOc1nn(-c2ccccc2)c(NC(=O)N[C@@H]2CN(CCOC)C[C@H]2c2ccccc2)c1C [Example 139]
  IC50: < 0.1 µM

## COCCN1C[C@@H](NC(=O)Nc2c(C)c(OC)nn2-c2ccccc2)[C@H](c2ccc(F)c(F)c2)C1 [Example 140, 1-((3S,4R)-4-(3,4-difluorophenyl)-1-(2-methoxyethyl)pyrrolidin-3-yl)-3-(3-methoxy-4-methyl-1-phenyl-1H-pyrazol-5-yl)urea]
  IC50: < 0.1 µM

## COCCN1C[C@@H](NC(=O)Nc2c(C)c(OCC#N)nn2-c2ccccc2)[C@H](c2ccc(F)c(F)c2)C1 [Example 141, 1-(3-(cyanomethoxy)-4-methyl-1-phenyl-1H-pyrazol-5-yl)-3-((3S,4R)-4-(3,4-difluorophenyl)-1-(2-methoxyethyl)pyrrolidin-3-yl)urea]
  IC50: < 0.1 µM

## COCCN1C[C@@H](NC(=O)Nc2c(C)c(OCc3ccc(OC)cc3)nn2-c2ccccc2)[C@H](c2ccc(F)c(F)c2)C1 [Example 142, 1-((3S,4R)-4-(3,4-difluoro-phenyl)-1-(2-methoxyethyl)pyrrolidin-3-yl)-3-(3-(4-methoxybenzyloxy)-4-methyl-1-phenyl-1H-pyrazol-5-yl)urea]
  IC50: < 0.1 µM

## COCCN1C[C@@H](NC(=O)Nc2c(C)c(OC)nn2-c2ccccc2)[C@H](c2ccc(F)cc2)C1 [Example 143, 1-((3S,4R)-4-(4-fluorophenyl)-1-(2-methoxyethyl)pyrrolidin-3-yl)-3-(3-methoxy-4-methyl-1-phenyl-1H-pyrazol-5-yl)urea]
  IC50: < 0.1 µM

## COCCN1C[C@@H](NC(=O)Nc2c(C)c(OCCF)nn2-c2ccccc2)[C@H](c2ccc(F)c(F)c2)C1 [Example 144, 1-((3S,4R)-4-(3,4-difluorophenyl)-1-(2-methoxyethyl)pyrrolidin-3-yl)-3-(3-(2-fluoro-ethoxy)-4-methyl-1-phenyl-1H-pyrazol-5-yl)urea]
  IC50: < 0.1 µM

## COCCN1C[C@@H](NC(=O)Nc2c(C)c(OCC(C)(C)O)nn2-c2ccccc2)[C@H](c2ccc(F)c(F)c2)C1 [Example 145, 1-((3S,4R)-4-(3,4-difluorophenyl)-1-(2-methoxyethyl)pyrrolidin-3-yl)-3-(3-(2-hydroxy-2-methylpropoxy)-4-methyl-1-phenyl-1H-pyrazol-5-yl)urea]
  IC50: < 0.1 µM

## CCOc1cc(NC(=O)N[C@@H]2CN(CCOC)C[C@H]2c2ccc(F)c(F)c2)n(-c2ccccc2)n1 [Example 146, 1-((3S,4R)-4-(3,4-difluorophenyl)-1-(2-methoxyethyl)pyrrolidin-3-yl)-3-(3-ethoxy-1-phenyl-1H-pyrazol-5-yl)urea]
  IC50: < 0.1 µM

## CCOc1nn(-c2ccccc2)c(NC(=O)N[C@@H]2CN(CCOC)C[C@H]2c2ccc(F)cc2)c1C [Example 147, 1-(3-ethoxy-4-methyl-1-phenyl-1H-pyrazol-5-yl)-3-((3S,4R)-4-(4-fluorophenyl)-1-(2-methoxyethyl)pyrrolidin-3-yl)urea]
  IC50: < 0.1 µM

## CCOc1nn(-c2ccccc2)c(NC(=O)N[C@@H]2CN(CCOC)C[C@H]2c2cccc(F)c2)c1C [Example 148, 1-(3-ethoxy-4-methyl-1-phenyl-1H-pyrazol-5-yl)-3-((3S,4R)-4-(3-fluorophenyl)-1-(2-methoxyethyl)pyrrolidin-3-yl)urea]
  IC50: < 0.1 µM

## COCCN1C[C@@H](NC(=O)Nc2c(C)c(OCCO)nn2-c2ccccc2)[C@H](c2cc(F)cc(F)c2)C1 [Example 149, 1-((3S,4R)-4-(3,5-difluorophenyl)-1-(2-methoxyethyl)pyrrolidin-3-yl)-3-(3-(2-hydroxy-ethoxy)-4-methyl-1-phenyl-1H-pyrazol-5-yl)urea]
  IC50: < 0.1 µM

## COCCN1C[C@@H](NC(=O)Nc2c3c(nn2C2CCCCC2)CCC3)[C@H](c2ccc(F)c(F)c2)C1 [Example 150, 1-(2-cyclohexyl-2,4,5,6-tetrahydrocyclopenta [c]pyrazol-3-yl)-3-((3S,4R)-4-(3,4-difluorophenyl)-1-(2-methoxyethyl)pyrrolidin-3-yl)urea]
  IC50: < 0.1 µM

## COCCN1C[C@@H](NC(=O)Nc2c3c(nn2-c2ccncc2)CCC3)[C@H](c2ccccc2)C1 [Example 151, 1-((3S,4R)-1-(2-methoxyethyl)-4-phenylpyrrolidin-3-yl)-3-(2-(pyridin-4-yl)-2,4,5,6-tetrahydrocyclopenta[c]pyrazol-3-yl)urea]
  IC50: < 0.1 µM
